Experimental data: PMC10177692, “Novel topoisomerase II/EGFR dual inhibitors: design, synthesis and docking studies of naphtho[2′,3′:4,5]thiazolo[3,2-a]pyrimidine hybrids as potential anticancer agents with apoptosis inducing activity” (Journal of Enzyme Inhibition and Medicinal Chemistry, 2023)
Read-outs that look alike come from different tables or passages of the source. One block for each compound: values may come before it.

Columns and labels:
A549 = assay: MTT anti-proliferative assay; assay type: cell-based, human; settings: for fold the activity of erlotinib: A549, ratio of IC50 values; for IC50: Homo sapiens, A549, MTT, 24 h, mean ± SE of three experiments, read-out: IC50 (µM) ± S.E. A549
Experimental: (§1) The culture media were supplemented with 10% heat inactivated foetal bovine serum (FBS, HyClone, Thermo Scientific) and antibiotics (100 U/ml penicillin and 100 µg/ml streptomycin, HyClone, Thermo Scientific). The cells were incubated in a humidified atmosphere containing 5% CO2 (Heracell VIOS CO2 incubator, Thermo Scientific) in air at 37 °C.
(§2) MTT reagent, at volume equal to 10% of the culture medium volume, was added to the cultured cells and to the blank wells. The culture plates were re-incubated for 2–4 h depending on cell type and density. After the incubation period, culture plates were restored from the incubator and the obtained formazan crystals were dissolved in acidified isopropanol with continuous shaking using plate shaker (MaxQ 2000, Thermo Fisher Scientific Inc., MI, USA) at room temperature. Absorbance was measured spectrophotometrically at wavelength 570 nm using a plate reader (Stat FaxR 4200, Awareness Technology, Inc., FL, USA). […] Three independent experiments were performed for each compound and Mean ± SE were calculated.

HCT-116 = assay: MTT anti-proliferative assay; assay type: cell-based, human; settings: Homo sapiens, HCT-116; MTT, 24 h, mean ± SE of three experiments; read-out: IC50 (µM) ± S.E. HCT-116
Experimental: as §1, §2

MCF-7 = assay: MTT anti-proliferative assay; assay type: cell-based, human; settings: for IC50: Homo sapiens, MCF7; for fold the activity of erlotinib: MCF-7, ratio of IC50 values
Experimental: as §1, §2

topoisomerase IIα = biological target: T1, topoisomerase IIα (Homo sapiens, UniProt P11388); assay: Topoisomerase IIα inhibitory activity (ELISA kit); assay type: cell-based; settings: MCF-7 cell line; for % inhibition of topoisomerase IIα activity: compounds at their IC50, compared to control
T1 construct: it decreases the concentration of topoisomerase iIα in MCF-7 cell line to 1.043 ± 0.10 ng/ml; endogenous in cells; host or cells: MCF-7
T1 sequence (P11388 whole entry): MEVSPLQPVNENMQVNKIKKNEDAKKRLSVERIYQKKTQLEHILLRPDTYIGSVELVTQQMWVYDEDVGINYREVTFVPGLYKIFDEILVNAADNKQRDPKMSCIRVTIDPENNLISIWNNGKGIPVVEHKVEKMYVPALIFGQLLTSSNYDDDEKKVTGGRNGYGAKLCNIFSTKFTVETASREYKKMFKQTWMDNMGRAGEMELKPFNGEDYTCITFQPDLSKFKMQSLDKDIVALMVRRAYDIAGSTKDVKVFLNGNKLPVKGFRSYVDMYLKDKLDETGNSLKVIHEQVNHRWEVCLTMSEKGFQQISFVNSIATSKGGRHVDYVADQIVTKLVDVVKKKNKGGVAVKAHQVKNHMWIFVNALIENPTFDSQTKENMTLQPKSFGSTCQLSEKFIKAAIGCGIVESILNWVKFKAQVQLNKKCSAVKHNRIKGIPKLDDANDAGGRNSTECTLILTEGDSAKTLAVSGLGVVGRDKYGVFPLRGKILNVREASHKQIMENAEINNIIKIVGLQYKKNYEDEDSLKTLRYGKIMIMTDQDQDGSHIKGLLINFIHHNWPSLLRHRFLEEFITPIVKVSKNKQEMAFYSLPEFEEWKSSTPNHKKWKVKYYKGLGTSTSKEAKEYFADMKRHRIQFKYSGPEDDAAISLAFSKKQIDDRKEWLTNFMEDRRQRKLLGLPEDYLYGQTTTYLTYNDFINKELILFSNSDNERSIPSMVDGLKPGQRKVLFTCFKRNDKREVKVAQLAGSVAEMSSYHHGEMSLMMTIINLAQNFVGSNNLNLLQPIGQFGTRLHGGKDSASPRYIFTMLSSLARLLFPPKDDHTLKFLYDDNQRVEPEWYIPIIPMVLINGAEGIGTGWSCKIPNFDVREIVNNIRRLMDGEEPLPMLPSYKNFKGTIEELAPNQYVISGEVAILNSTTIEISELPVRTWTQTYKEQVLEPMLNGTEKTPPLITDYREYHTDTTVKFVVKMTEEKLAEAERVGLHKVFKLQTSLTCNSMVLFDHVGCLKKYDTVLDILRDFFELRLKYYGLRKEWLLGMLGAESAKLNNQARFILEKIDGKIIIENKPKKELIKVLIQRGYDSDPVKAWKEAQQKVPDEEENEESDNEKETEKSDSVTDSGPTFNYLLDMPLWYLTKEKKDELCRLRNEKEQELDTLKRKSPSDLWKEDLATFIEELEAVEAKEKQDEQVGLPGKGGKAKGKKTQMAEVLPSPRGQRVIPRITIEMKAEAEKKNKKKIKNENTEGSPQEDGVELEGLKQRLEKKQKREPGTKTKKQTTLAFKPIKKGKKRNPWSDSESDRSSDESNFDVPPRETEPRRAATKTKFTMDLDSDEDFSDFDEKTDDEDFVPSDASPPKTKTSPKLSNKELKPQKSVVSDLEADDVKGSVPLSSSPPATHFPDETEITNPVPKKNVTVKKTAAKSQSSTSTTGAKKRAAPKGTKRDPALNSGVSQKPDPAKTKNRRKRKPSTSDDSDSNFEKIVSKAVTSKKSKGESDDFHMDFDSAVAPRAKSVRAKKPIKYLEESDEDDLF
Experimental: Biotin-conjugated antibody was added to each well followed by incubation at 37 °C for 1 h, then the plates were aspirated. Avidin conjugated Horseradish Peroxidase (HRP avidin) solution was added to each well, incubated again at 37 °C for 1 h. TMB substrate was added to the wells and the plate was incubated at 37 °C for 30 min at dark place. The absorbance was read using spectrophotometer at a wavelength of 450 nm.

topoisomerase II = biological target: T2, topoisomerase II (Homo sapiens, UniProt P11388); assay: DNA topo II inhibition assay (kDNA, agarose gel); assay type: biochemical; settings: 10 µM, with topo II
T2 construct: purchased Topogen, USA
T2 sequence (P11388 whole entry): as above
Experimental: Using the procedure outlined in topoisomerase II Drug Screening Kit (Topogen, USA), the effect of 6a, 6c and 6i on topoisomerase II inhibition and the effectiveness of catenated/decatenated kDNA formation were examined. The reaction mixture includes 10 mM MgCl2, 50 mM Tris-HCl, 0.5 mM dithiothreitol, […]/ml bovine serum albumin, 200–300 ng of kDNA and topoisomerase II. […] After the reaction samples were incubated for 30 min at 37 °C, the reaction was stopped by adding […] of a stop buffer containing 10% (w/v) SDS and […] of 0.5 mg/ml proteinase followed by incubating the mixture for 10 min at 37 °C. The reaction mixture was separated by 1% agarose gel and examined after being stained with ethidium bromide.

EGFR = biological target: T3, EGFR (Homo sapiens, UniProt P00533); assay: EGFR kinase assay kit; assay type: biochemical; settings: mean ± SE; read-out: EGFR inhibitory activity IC50
T3 construct: purchased BPS Bioscience, San Diego, CA, USA
T3 sequence (P00533 25-1210): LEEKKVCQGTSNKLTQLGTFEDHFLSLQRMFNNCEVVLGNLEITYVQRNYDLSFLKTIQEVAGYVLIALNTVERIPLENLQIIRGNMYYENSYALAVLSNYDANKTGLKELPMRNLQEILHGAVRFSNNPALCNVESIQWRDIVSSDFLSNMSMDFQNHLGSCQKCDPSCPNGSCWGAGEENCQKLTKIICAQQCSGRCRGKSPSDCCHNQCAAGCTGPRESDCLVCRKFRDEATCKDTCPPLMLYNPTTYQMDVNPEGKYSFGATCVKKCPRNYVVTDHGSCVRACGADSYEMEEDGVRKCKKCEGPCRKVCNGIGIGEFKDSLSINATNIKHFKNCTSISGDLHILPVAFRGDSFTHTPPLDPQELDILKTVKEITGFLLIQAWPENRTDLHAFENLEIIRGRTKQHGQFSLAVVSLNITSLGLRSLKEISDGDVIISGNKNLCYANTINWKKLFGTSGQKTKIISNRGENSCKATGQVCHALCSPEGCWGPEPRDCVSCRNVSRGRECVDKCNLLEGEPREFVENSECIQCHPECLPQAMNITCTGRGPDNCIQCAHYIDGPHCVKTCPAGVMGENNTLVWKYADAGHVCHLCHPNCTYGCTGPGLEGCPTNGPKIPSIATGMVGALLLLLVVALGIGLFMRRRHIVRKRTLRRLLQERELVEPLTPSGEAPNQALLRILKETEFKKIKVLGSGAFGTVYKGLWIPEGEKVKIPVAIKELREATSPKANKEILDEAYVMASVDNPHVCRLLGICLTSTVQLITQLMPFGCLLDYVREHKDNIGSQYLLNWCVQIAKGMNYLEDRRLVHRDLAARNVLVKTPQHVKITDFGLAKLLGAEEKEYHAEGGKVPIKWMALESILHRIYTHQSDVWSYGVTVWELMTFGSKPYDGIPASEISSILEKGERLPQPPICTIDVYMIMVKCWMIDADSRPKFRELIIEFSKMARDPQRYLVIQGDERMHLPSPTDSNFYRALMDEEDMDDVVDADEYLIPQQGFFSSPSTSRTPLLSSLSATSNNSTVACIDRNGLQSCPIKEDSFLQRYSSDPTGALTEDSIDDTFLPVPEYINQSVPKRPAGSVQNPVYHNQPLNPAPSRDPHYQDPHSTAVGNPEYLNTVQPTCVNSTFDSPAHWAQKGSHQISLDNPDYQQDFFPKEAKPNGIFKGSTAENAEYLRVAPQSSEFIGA
Experimental: The kinase activity of EGFR was assessed for 6a, 6c and 6i hybrids using EGFR kinase assay kit (BPS Bioscience, San Diego, CA, USA) based on the manufacturer’s instructions. Three independent experiments were performed for each compound and Mean ± SE were calculated.

p53 = p53 level ELISA in MCF-7 cells; assay type: cell-based, human; settings: for p53 FLD: MCF-7, at IC50, fold of control cells; for p53 Conc.(pg/ml): MCF-7, at IC50, control 257 ± 19.1
Experimental: p53 level was determined in MCF-7 cell line using Human p53 ELISA Kit (Sigma Aldrich, St. Louis, MO, USA). The cells were lysed using cell extraction buffer. Cell lysate was diluted with standard diluent buffer, then added to p53 monoclonal antibody pre-coated 96-wells plate. The plate incubated for 2 h at room temperature. Anti-p53 detection antibody was added to the plate and re-incubated at room temperature for 1 h. The plate washed four times using wash buffer followed by addition of anti-rabbit IgG-Horseradish Peroxidase (HRP) working solution. The plate incubated at room temperature for 30 min. Chromogen TMB (tetramethylbenzidine) was added to induce colour reaction. The absorbance of the plate was read at 450 nm using microplate reader (Bio-Rad Laboratories, Hercules, CA, USA). Three independent experiments were performed for each compound and Mean ± SE were calculated.

Bax = Bax level ELISA in MCF-7 cells; assay type: cell-based, human; settings: for Bax Conc.(pg/ml): MCF-7, at IC50, 24 h, control 83.16 ± 6.2; for Bax FLD: MCF-7, at IC50, fold of control cells
Experimental: (§3) MCF-7 cells were cultured in DMEM supplied with 10% FBS and incubated in 5% CO2 in air at 37 °C. […] Cell lysate was diluted using standard diluent buffer over the range of assay. Bax and Bcl-2 content in the lysate was assessed using human Bax ELISA kit (DRG, USA) and Bcl-2 ELISA Kit (Zymed Laboratories, Invitrogen Immuno-detection, Canada), respectively, according to the manufacturer’s instructions for each kit. The results were expressed as Mean ± SE of three independent experiments.

Bcl-2 = Bcl-2 level ELISA in MCF-7 cells; assay type: cell-based, human; settings: for Bcl-2 Conc.(ng/ml): MCF-7, at IC50, 24 h, control 6.56 ± 0.22; for Bcl-2 FLD: MCF-7, at IC50, fold of control cells
Experimental: as §3

caspase-7 = assay: Caspase-7 ELISA in MCF-7 cells; assay type: cell-based, human; settings: for Caspase 7 FLD: MCF-7, at IC50, fold of control; for Caspase 7 Conc.(ng/ml): MCF-7, at IC50, control 0.45 ± 0.03
Experimental: (§4) The effect of 6a, 6c and 6i hybrids on caspase-7 and −9 levels in MCF-7 cell line was measured using Human Caspase-7 ELISA Kit (BioVision Inc., Milpitas, CA 95035 USA) and Human Caspase-9 ELISA Kit (EIA-4860, DRG, USA), respectively, and according to the manufacturer’s instructions. The results were expressed as Mean ± SE of three independent experiments.

caspase-9 = assay: Caspase-9 ELISA in MCF-7 cells; assay type: cell-based, human; settings: for Caspase 9 FLD: MCF-7, at IC50, fold of control; for Caspase 9 Conc.(pg/ml): MCF-7, at IC50, control 4.51 ± 0.29
Experimental: as §4

[1] = MTT, 24 h, mean ± SE of three experiments, read-out: IC50 (µM) ± S.E. MCF-7
[2] = MCF-7, concentration used for treatment, read-out: IC50 (Table 2)
[3] = MCF-7, concentration used for treatment, read-out: IC50 (Table 3)

Compound: N#Cc1c(-c2ccc(F)cc2)nc2sc3c(n2c1=O)C(=O)c1ccccc1C3=O [Compound 6b, 2–(4-Fluorophenyl)-4,6,11-trioxo-6,11-dihydro-4H-naphtho[’',’':4,5]thiazolo-[3,2-a]pyrimidine-3-carbonitrile]
fold the activity of erlotinib (A549): 1.23 fold | IC50 (A549): 4.2 ± 0.41 µM | IC50 (HCT-116): 11.5 ± 0.12 µM | IC50 (MCF-7; [1]): 4.78 ± 0.36 µM | fold the activity of erlotinib (MCF-7): 1.52 fold

Compound: COc1ccc(-c2nc3sc4c(n3c(=O)c2C#N)C(=O)c2ccccc2C4=O)cc1OC [Compound 6c, 2–(3,4-Dimethoxyphenyl)-4,6,11-trioxo-6,11-dihydro-4H-naphtho[’',’':4,5]-thiazolo[3,2-a]pyrimidine-3-carbonitrile]
IC50 (A549): 3.65 ± 0.25 µM | IC50 (HCT-116): 3.66 ± 0.39 µM | IC50 (MCF-7; [2]): 4.42 µM | IC50 (MCF-7; [3]): 4.42 µM | IC50 (MCF-7; [1]): 4.42 ± 0.35 µM | % inhibition of topoisomerase IIα activity (topoisomerase IIα): 11.30% | linear DNA formation from catenated kDNA (topoisomerase II): the production of linear DNA was not noticed | IC50 (EGFR): 0.0447 ± 0.00082 µM | p53 FLD (p53): 2.6 fold | p53 Conc.(pg/ml) (p53): 678 ± 42.3 pg/mL | Bax Conc.(pg/ml) (Bax): 372.7 ± 9.4 pg/mL | Bax FLD (Bax): 4.48 fold | Bcl-2 Conc.(ng/ml) (Bcl-2): 2.17 ± 0.36 ng/mL | Bcl-2 FLD (Bcl-2): 0.33 fold | Caspase 7 FLD (caspase-7): 4.20 fold | Caspase 7 Conc.(ng/ml) (caspase-7): 1.89 ± 0.02 ng/mL | Caspase 9 FLD (caspase-9): 3.03 fold | Caspase 9 Conc.(pg/ml) (caspase-9): 13.68 ± 0.42 pg/mL

Compound: N#Cc1c(-c2ccc(Br)cc2)nc2sc3c(n2c1=O)C(=O)c1ccccc1C3=O [Compound 6d, 2–(4-Bromophenyl)-4,6,11-trioxo-6,11-dihydro-4H-naphtho[’',’':4,5]thiazolo-[3,2-a]pyrimidine-3-carbonitrile]
fold the activity of erlotinib (A549): 1.60 fold | IC50 (A549): 3.25 ± 0.31 µM | IC50 (HCT-116): 11.77 ± 0.11 µM | IC50 (MCF-7; [1]): 5.66 ± 0.29 µM | fold the activity of erlotinib (MCF-7): 1.28 fold

Compound: COc1cc(-c2nc3sc4c(n3c(=O)c2C#N)C(=O)c2ccccc2C4=O)cc(OC)c1OC [Compound 6f, 4,6,11-Trioxo-2–(3,4,5-trimethoxyphenyl)-6,11-dihydro-4H-naphtho[’',’':4,5]-thiazolo[3,2-a]pyrimidine-3-carbonitrile]
IC50 (A549): 38.3 ± 3.21 µM | IC50 (HCT-116): 26.8 ± 1.78 µM | IC50 (MCF-7; [1]): 29.1 ± 1.56 µM

Compound: COc1cccc2c1C(=O)c1c(O)c3c(c(O)c1C2=O)C[C@@](O)(C(=O)CO)C[C@@H]3O[C@H]1C[C@H](N)[C@H](O)[C@H](C)O1 [Dox, Doxorubicin, reference compound]
IC50 (A549): 4.95 ± 0.29 µM | IC50 (HCT-116): 6.78 ± 0.44 µM | IC50 (MCF-7; [2]): 5.62 µM | IC50 (MCF-7; [3]): 5.62 µM | IC50 (MCF-7; [1]): 5.62 ± 0.31 µM | % inhibition of topoisomerase IIα activity (topoisomerase IIα): 65.92% | concentration of topoisomerase IIα (topoisomerase IIα; compounds at their IC50, control 3.663 ± 0.09 ng/ml): 1.248 ± 0.09 ng/mL | p53 FLD (p53): 4 fold | p53 Conc.(pg/ml) (p53): 1051 ± 22.6 pg/mL | Bax Conc.(pg/ml) (Bax): 511.2 ± 6.5 pg/mL | Bax FLD (Bax): 6.14 fold | Bcl-2 Conc.(ng/ml) (Bcl-2): 1.66 ± 0.03 ng/mL | Bcl-2 FLD (Bcl-2): 0.25 fold | Caspase 7 FLD (caspase-7): 23.2 fold | Caspase 7 Conc.(ng/ml) (caspase-7): 10.44 ± 0.92 ng/mL | Caspase 9 FLD (caspase-9): 6.53 fold | Caspase 9 Conc.(pg/ml) (caspase-9): 29.48 ± 0.25 pg/mL

Compound: C#Cc1cccc(Nc2ncnc3cc(OCCOC)c(OCCOC)cc23)c1 [Erlotinib, erlotinib, reference compound]
IC50 (A549): 5.19 ± 0.36 µM | IC50 (HCT-116): 8.64 ± 0.18 µM | IC50 (MCF-7; [1]): 7.26 ± 0.2 µM

Next, values leading:

IC50 (A549): 5.72 ± 0.37 µM | IC50 (HCT-116): 9.81 ± 0.65 µM | IC50 (MCF-7; [1]): 5.14 ± 0.32 µM
Compound: N#Cc1c(-c2ccc(Cl)cc2)nc2sc3c(n2c1=O)C(=O)c1ccccc1C3=O [Compound 6e, 2–(4-Chlorophenyl)-4,6,11-trioxo-6,11-dihydro-4H-naphtho[’',’':4,5]thiazolo-[3,2-a]pyrimidine-3-carbonitrile]

IC50 (A549): 42.2 ± 2.19 µM | IC50 (HCT-116): 9 ± 0.66 µM | IC50 (MCF-7; [1]): 13.8 ± 1.12 µM
Compound: N#Cc1c(-c2ccccc2)nc2sc3c(n2c1=O)C(=O)c1ccccc1C3=O [Compound 6g, 4,6,11-Trioxo-2-phenyl-6,11-dihydro-4H-naphtho[’',’':4,5]thiazolo[3,2-a]-pyrimidine-3-carbonitrile]

IC50 (A549): 21.2 ± 1.23 µM | IC50 (HCT-116): 56.2 ± 4.11 µM | IC50 (MCF-7; [1]): 37.9 ± 2.25 µM
Compound: CN(C)c1ccc(-c2nc3sc4c(n3c(=O)c2C#N)C(=O)c2ccccc2C4=O)cc1 [Compound 6h, 2–(4-(Dimethylamino)phenyl)-4,6,11-trioxo-6,11-dihydro-4H-naphtho-[’',’':4,5]thiazolo[3,2-a]pyrimidine-3-carbonitrile]
